Test results taken from ChEMBL document CHEMBL1944555, “Selective and slow-binding inhibition of shikonin derivatives isolated from Lithospermum erythrorhizon on glycosyl hydrolase 33 and 34 sialidases” (Bioorg Med Chem, 2012).
Active and inactive are the calls of the source. No cut-off for these calls is given here.

What was measured:
[1] = (§1) Inhibition of Clostridium perfringens ATCC 10543 sialidase Nan1 c-terminal catalytic domain using 4-methylumbelliferyl-alpha-D-N-acetylneuraminic acid sodium salt hydrate as substrate by fluorimetric analysis
Clostridium perfringens [2] = experiment: as §1
Clostridium perfringens [3] = experiment: Competitive inhibition of Clostridium perfringens ATCC 10543 sialidase Nan1 c-terminal catalytic domain using 4-methylumbelliferyl-alpha-D-N-acetylneuraminic acid sodium salt hydrate as substrate by Lineweaver-Burk and Dixon plot analysis
[4] = molecular target: Neuraminidase (Influenza A virus (strain A/Brevig Mission/1/1918 H1N1) (Influenza Avirus (strain A/South Carolina/1/1918 H1N1))) (UniProt Q9IGQ6); experiment: (§2) Inhibition of recombinant influenza A virus H1N1 A/Bervig_Mission/1/18 sialidase activity using 4-methylumbelliferyl-alpha-D-N-acetylneuraminic acid sodium salt hydrate as substrate by fluorimetric analysis; conditions: Influenza A virus (A/Brevig Mission/1/1918(H1N1))
Chain of Neuraminidase (Influenza A virus (strain A/Brevig Mission/1/1918 H1N1) (Influenza Avirus (strain A/South Carolina/1/1918 H1N1))) (Q9IGQ6 whole entry, the tested form may be a part): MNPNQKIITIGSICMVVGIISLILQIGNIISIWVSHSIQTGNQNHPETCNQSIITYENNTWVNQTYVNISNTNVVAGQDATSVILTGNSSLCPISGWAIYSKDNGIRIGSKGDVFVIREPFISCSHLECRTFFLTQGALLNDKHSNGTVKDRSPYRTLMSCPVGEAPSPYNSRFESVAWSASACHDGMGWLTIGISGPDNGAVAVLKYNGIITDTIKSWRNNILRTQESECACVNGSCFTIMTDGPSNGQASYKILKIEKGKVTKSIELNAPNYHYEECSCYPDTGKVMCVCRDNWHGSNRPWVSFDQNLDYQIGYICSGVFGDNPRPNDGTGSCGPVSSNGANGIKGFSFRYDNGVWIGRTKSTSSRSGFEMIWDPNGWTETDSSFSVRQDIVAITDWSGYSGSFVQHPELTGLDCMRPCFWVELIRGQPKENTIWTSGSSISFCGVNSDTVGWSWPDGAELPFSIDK

[5] = molecular target: Neuraminidase (Influenza A virus (strain A/Brevig Mission/1/1918 H1N1) (Influenza Avirus (strain A/South Carolina/1/1918 H1N1)), UniProt Q9IGQ6); experiment: as §2; set-up: species or system Influenza A virus (A/Brevig Mission/1/1918(H1N1))
Chain of Neuraminidase (Influenza A virus (strain A/Brevig Mission/1/1918 H1N1) (Influenza Avirus (strain A/South Carolina/1/1918 H1N1)), UniProt Q9IGQ6) (Q9IGQ6 whole entry): as the sequence (Q9IGQ6 whole entry, the tested form may be a part) above

[6] = molecular target: Neuraminidase (Influenza A virus (strain A/Brevig Mission/1/1918 H1N1) (Influenza Avirus (strain A/South Carolina/1/1918 H1N1))) (UniProt Q9IGQ6); experiment: Noncompetitive inhibition of recombinant influenza A virus H1N1 A/Bervig_Mission/1/18 sialidase activity using 4-methylumbelliferyl-alpha-D-N-acetylneuraminic acid sodium salt hydrate as substrate by Lineweaver-Burk and Dixon plot analysis; conditions: Influenza A virus (A/Brevig Mission/1/1918(H1N1))
Clostridium perfringens [7] = experiment: Inhibition of Clostridium perfringens ATCC 10543 sialidase Nan1 c-terminal catalytic domain using 4-methylumbelliferyl-alpha-D-N-acetylneuraminic acid sodium salt hydrate as substrate at IC50 concentration pre-incubated for 10 mins prior substrate addition by fluorimetric analysis; conditions: TDE = time-dependent effect
[8] = Reversible inhibition of Clostridium perfringens ATCC 10543 sialidase Nan1 c-terminal catalytic domain using 4-methylumbelliferyl-alpha-D-N-acetylneuraminic acid sodium salt hydrate as substrate compound pre-incubated prior to substrate addition by fluorimetric analysis; conditions: read-out: Ki(app)
[9] = Inhibition of alpha-glucosidase
[10] = Inhibition of beta-glucosidase at 200 uM
[11] = Inhibition of rhamnosidase at 200 uM
[12] = Inhibition of alpha-glucosidase at 200 uM
[13] = molecular target: Neuraminidase (Influenza A virus (strain A/Brevig Mission/1/1918 H1N1) (Influenza Avirus (strain A/South Carolina/1/1918 H1N1))) (UniProt Q9IGQ6); experiment: Inhibition of recombinant influenza A virus H1N1 A/Bervig_Mission/1/18 sialidase activity using 4-methylumbelliferyl-alpha-D-N-acetylneuraminic acid sodium salt hydrate as substrate at 200 uM by fluorimetric analysis; conditions: Influenza A virus (A/Brevig Mission/1/1918(H1N1))

| SMILES | IC50 [1] | inhibition (Clostridium perfringens [2]) | Kic (Clostridium perfringens [3]) | inhibition [4] | IC50 [5] | inhibition [6] | inhibition (Clostridium perfringens [7]) | Ki [8] | IC50 [9] | inhibition [10] | inhibition [11] | inhibition [12] | inhibition [13] |
| --- | --- | --- | --- | --- | --- | --- | --- | --- | --- | --- | --- | --- | --- |
| CC(=O)O[C@H](CC=C(C)C)C1=CC(=O)c2c(O)ccc(O)c2C1=O [ACETYLSHIKONIN] | 2.5 µM | Dose-dependent effect | 1.1 µM | Dose-dependent effect | 41.4 µM | Active | tde | 1.01 µM | 158 µM | inactive | inactive | – | – |
| CC(C)=CC[C@@H](OC(=O)CC(C)(C)O)C1=CC(=O)c2c(O)ccc(O)c2C1=O [BETA-HYDROXYISOVALERYLSHIKONIN] | 3.4 µM | Dose-dependent effect | 0.8 µM | Dose-dependent effect | 40.5 µM | Active | tde | 2.24 µM | – | inactive | inactive | inactive | – |
| CC(C)=CCCC1=CC(=O)c2c(O)ccc(O)c2C1=O [DEOXYSHIKONIN] | 27.5 µM | Dose-dependent effect | 15.9 µM | Dose-dependent effect | 63.4 µM | Active | tde | 11.9 µM | – | inactive | inactive | inactive | – |
| CC(C)=CC[C@@H](OC(=O)C=C(C)C)C1=CC(=O)c2c(O)ccc(O)c2C1=O [DIMETHYLACRYLSHIKONIN] | 1.9 µM | Dose-dependent effect | 0.6 µM | Dose-dependent effect | 47.3 µM | Active | tde | 1.75 µM | 141 µM | inactive | inactive | – | – |
| CC(C)=CC[C@@H](OC(=O)C(C)C)C1=CC(=O)c2c(O)ccc(O)c2C1=O [ISOBUTYLSHIKONIN] | 2.9 µM | Dose-dependent effect | 0.9 µM | Dose-dependent effect | 40.5 µM | Active | tde | 0.26 µM | 144 µM | inactive | inactive | – | – |
| CC(C)=CC[C@@H](O)C1=CC(=O)c2c(O)ccc(O)c2C1=O [SHIKONIN] | 53.8 µM | Dose-dependent effect | 21.4 µM | Dose-dependent effect | 34.1 µM | Active | tde | 58.8 µM | – | inactive | inactive | inactive | – |
| CC(C)=CCC(OC(=O)CC(C)C)c1coc(-c2cc(O)ccc2O)c1 (configuration not stated) [SHIKONOFURAN C] | 0.6 µM | Dose-dependent effect | 0.2 µM | – | > 100 µM | – | tde | 0.15 µM | 20.8 µM | inactive | inactive | – | inactive |
| CC(C)=CCC(OC(=O)C(C)C)c1coc(-c2cc(O)ccc2O)c1 (configuration not stated) [SHIKONOFURAN D] | 1 µM | Dose-dependent effect | 0.3 µM | – | > 100 µM | – | tde | 0.21 µM | 37.8 µM | inactive | inactive | – | inactive |
| CC(C)=CCC(OC(=O)C=C(C)C)c1coc(-c2cc(O)ccc2O)c1 (configuration not stated) [SHIKONOFURAN E] | 0.2 µM | Dose-dependent effect | 0.1 µM | – | > 100 µM | – | tde | 0.05 µM | 26.6 µM | inactive | inactive | – | inactive |
| OCC(CO)N[C@H]1C[C@](O)(CO)[C@@H](O)[C@H](O)[C@H]1O [VOGLIBOSE] | – | – | – | – | – | – | – | – | 23.4 µM | – | – | – | – |
